Test results reported in ChEMBL document CHEMBL1955809, “Discovery of GS-9256: a novel phosphinic acid derived inhibitor of the hepatitis C virus NS3/4A protease with potent clinical activity” (Bioorg Med Chem Lett, 2012).
The source made the active and inactive calls. The calls are words filed in the database; no cut-off is given here.

Tests used:
Hepatitis C virus [1] = assay: Inhibition of HCV1b NS3/4A protease; set-up: species or system Hepatitis C virus subtype 1b; details: for IC50: Hepatitis C virus
[2] = Permeability from apical to basolateral side in human Caco2 cells; format: ADME, cell-based; details: Caco-2, read-out: permeability
Hepatitis C virus [3] = assay: Antiviral activity against HCV genotype 1b infected in human Huh cells expressing luc gene by replicon assay; format: functional, organism-based, Hepacivirus hominis
[4] = Permeability from basolateral to apical side in human Caco2 cells; format: ADME, cell-based; details: Caco-2, read-out: permeability
[5] = Oral bioavailability in dog at 4 mg/kg; format: ADME, organism-based, Canis lupus familiaris; details: in vivo
[6] = Selectivity ratio of IC50 for human leukocyte protease to IC50 for HCV1b NS3/4A protease
Hepatitis C virus [7] = assay: Antiviral activity against HCV genotype 1 infected in human at 450 mg, po; format: functional, Hepacivirus hominis
[8] = biological target: Voltage-gated inwardly rectifying potassium channel KCNH2 (Homo sapiens, UniProt Q12809); assay: Inhibition of human ERG up to 25 uM
[9] = biological target: T1, Solute carrier family 22 member 7 (Homo sapiens, UniProt Q9Y694); assay: Activity at OAT2
T1 sequence (Q9Y694 whole entry): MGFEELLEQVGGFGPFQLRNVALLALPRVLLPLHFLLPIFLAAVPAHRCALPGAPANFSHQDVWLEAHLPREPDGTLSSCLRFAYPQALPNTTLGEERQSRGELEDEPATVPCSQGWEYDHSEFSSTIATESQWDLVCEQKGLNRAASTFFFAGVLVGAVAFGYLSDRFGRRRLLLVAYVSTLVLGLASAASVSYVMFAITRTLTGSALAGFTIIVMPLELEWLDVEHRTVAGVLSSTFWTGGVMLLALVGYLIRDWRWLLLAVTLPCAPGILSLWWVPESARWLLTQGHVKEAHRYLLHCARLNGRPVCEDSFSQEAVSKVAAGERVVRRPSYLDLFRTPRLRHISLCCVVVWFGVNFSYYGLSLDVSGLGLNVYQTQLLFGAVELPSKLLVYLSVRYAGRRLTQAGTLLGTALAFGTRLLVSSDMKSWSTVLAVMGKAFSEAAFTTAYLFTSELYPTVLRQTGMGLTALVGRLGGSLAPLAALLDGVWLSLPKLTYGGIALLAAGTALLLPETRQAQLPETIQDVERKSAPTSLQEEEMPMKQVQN

[10] = Inhibition of P-glycoprotein
Hepatitis C virus [11] = assay: Antiviral activity against HCV genotype 1 infected in human at 300 mg, po; format: functional, Hepacivirus hominis
[12] = Selectivity ratio of IC50 for cathepsin L to IC50 for HCV1b NS3/4A protease
Bile salt export pump = Bile salt export pump (Homo sapiens, UniProt O95342); assay: Inhibition of BSEP
[13] = biological target: T2, Solute carrier family 22 member 6 (Homo sapiens, UniProt Q4U2R8); assay: Activity at OAT1
T2 sequence (Q4U2R8 whole entry): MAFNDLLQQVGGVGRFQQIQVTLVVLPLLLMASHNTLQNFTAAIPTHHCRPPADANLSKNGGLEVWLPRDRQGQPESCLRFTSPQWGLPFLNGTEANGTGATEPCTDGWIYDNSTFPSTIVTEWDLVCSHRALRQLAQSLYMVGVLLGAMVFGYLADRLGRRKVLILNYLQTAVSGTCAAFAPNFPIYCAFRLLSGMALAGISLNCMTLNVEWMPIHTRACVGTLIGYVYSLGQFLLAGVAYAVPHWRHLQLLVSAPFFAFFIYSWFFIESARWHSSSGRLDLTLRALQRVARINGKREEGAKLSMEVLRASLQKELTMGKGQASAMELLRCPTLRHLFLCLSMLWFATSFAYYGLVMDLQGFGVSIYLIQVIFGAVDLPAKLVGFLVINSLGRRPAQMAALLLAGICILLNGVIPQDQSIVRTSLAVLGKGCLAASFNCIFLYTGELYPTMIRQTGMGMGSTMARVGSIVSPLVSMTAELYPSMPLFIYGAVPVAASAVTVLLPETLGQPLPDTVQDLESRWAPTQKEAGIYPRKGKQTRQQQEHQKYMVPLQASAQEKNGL

[14] = Half life in human; format: ADME, organism-based; details: in vivo
[15] = Selectivity ratio of IC50 human protease 3 to IC50 for HCV 1b NS3/4A protease
[16] = Inhibition of CYP450; format: ADME
[17] = Selectivity ratio of IC50 for cathepsin D to IC50 for HCV1b NS3/4A protease
[18] = Drug excretion in iv dosed bile-cannulated rat bile assessed as parent compound level after 4 hrs; format: ADME, organism-based; details: read-out: Ae
[19] = Selectivity ratio of IC50 for porcine pancreatic elastase to IC50 for HCV1b NS3/4A protease
Hepatitis C virus [20] = assay: Antiviral activity against HCV genotype 1 infected in human at 150 mg, po; format: functional, Hepacivirus hominis
[21] = Clearance in dog; format: ADME, organism-based, Canis lupus familiaris; details: in vivo
[22] = Half life in dog at 1 mg/kg, iv; format: ADME, organism-based, Canis lupus familiaris; set-up: dose 1 mg/kg, route intravenous; details: in vivo
Canis familiaris = assay: AUC in dog at 1 mg/kg, iv and 4 mg/kg, po; format: ADME, organism-based, Canis lupus familiaris, Plasma; details: in vivo
[23] = Dissociation constant, pKa of the compound; format: physicochemical
[24] = Clearance in dog at 1 mg/kg, iv and 4 mg/kg, po; format: ADME, organism-based, Canis lupus familiaris; details: in vivo
[25] = Volume of distribution at steady state in dog at 1 mg/kg, iv and 4 mg/kg, po; format: ADME, organism-based, Canis lupus familiaris; details: in vivo, read-out: Vdss

Chain of Voltage-gated inwardly rectifying potassium channel KCNH2 (Q12809 whole entry): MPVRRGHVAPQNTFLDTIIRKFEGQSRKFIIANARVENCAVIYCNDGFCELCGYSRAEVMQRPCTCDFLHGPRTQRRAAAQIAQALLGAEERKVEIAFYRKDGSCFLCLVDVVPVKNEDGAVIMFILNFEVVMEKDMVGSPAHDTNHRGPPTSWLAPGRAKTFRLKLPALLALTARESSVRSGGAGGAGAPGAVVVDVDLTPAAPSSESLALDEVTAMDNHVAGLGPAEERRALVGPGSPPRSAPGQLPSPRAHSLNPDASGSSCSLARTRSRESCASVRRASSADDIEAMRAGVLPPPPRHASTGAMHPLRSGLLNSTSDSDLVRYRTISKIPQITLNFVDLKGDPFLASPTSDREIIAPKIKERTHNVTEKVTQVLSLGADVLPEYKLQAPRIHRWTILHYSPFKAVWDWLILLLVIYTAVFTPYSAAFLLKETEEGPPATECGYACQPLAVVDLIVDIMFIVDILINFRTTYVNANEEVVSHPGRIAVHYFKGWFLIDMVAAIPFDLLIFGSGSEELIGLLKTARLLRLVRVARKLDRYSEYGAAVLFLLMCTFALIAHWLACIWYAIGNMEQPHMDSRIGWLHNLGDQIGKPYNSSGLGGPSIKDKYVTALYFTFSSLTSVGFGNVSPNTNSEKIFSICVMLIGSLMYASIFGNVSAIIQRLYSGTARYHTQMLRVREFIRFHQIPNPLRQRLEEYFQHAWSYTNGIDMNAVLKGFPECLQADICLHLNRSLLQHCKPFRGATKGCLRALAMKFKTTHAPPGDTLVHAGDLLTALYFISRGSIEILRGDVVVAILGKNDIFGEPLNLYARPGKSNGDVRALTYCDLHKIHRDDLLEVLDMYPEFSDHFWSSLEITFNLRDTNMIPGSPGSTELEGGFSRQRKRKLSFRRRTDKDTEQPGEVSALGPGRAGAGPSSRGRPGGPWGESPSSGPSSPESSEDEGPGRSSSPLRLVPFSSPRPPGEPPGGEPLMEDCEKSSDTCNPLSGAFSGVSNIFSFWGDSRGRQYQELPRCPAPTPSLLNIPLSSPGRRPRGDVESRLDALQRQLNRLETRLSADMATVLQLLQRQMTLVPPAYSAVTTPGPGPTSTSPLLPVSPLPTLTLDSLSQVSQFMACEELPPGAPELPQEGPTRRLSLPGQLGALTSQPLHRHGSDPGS
Chain of Bile salt export pump (O95342 whole entry): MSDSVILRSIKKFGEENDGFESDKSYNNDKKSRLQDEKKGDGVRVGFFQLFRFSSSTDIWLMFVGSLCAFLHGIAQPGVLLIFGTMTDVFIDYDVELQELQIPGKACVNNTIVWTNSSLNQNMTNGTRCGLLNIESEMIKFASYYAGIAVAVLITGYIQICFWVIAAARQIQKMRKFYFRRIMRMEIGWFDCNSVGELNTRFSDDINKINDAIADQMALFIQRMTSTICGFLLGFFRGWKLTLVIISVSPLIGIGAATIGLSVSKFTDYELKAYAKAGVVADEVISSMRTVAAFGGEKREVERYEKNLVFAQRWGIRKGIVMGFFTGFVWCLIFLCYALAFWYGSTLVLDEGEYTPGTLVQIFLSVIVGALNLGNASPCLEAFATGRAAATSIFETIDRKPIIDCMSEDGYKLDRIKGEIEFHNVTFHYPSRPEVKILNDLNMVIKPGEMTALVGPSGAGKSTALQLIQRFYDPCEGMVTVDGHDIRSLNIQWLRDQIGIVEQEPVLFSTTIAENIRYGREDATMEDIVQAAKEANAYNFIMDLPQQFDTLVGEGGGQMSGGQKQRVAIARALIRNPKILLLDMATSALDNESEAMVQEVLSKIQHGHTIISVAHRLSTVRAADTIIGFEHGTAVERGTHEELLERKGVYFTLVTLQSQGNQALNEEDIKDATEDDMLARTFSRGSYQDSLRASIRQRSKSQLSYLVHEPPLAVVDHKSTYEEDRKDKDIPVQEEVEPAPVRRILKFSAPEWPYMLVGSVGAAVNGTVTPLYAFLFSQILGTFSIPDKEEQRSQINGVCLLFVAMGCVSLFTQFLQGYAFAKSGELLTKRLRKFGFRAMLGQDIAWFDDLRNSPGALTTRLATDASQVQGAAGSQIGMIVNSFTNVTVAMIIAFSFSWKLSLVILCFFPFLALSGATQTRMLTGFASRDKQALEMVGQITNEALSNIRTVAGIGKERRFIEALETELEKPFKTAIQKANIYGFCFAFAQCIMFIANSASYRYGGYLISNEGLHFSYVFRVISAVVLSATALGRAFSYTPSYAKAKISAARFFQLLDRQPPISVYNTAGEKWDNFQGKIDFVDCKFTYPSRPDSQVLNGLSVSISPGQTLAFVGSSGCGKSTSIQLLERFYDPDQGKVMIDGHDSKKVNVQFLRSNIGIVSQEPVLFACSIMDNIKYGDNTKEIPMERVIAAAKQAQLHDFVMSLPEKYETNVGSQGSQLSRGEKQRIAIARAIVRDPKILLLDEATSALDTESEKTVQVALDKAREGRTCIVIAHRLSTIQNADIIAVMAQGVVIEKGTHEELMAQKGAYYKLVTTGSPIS

IC50 (Hepatitis C virus [1]) [nM] | Papp A→B [2] [×10⁻⁶ cm/s] | EC50 (Hepatitis C virus [3]) [nM] | Papp B→A [4] [×10⁻⁶ cm/s] | SMILES | further results
8 | 0.69 | 146 | 3.9 | C=C[C@@H]1C[C@]1(NC(=O)[C@@H]1C[C@@H](Oc2cc(-c3csc(NC(C)C)n3)nc3cc(OC)ccc23)CN1C(=O)[C@@H](NC(=O)OC1CCCC1)C(C)(C)C)P(=O)(O)Cc1ccccc1C | 
15 | 0.69 | 860 | 12 | C=C[C@@H]1C[C@]1(NC(=O)[C@@H]1C[C@@H](Oc2cc(-c3csc(NC(C)C)n3)nc3cc(OC)ccc23)CN1C(=O)[C@@H](NC(=O)OC1CCCC1)C(C)(C)C)P(=O)(O)Cc1ccc(C)cc1 | 
6 | 0.43 | 48 | 6.2 | C=C[C@@H]1C[C@]1(NC(=O)[C@@H]1C[C@@H](Oc2cc(-c3csc(NC(C)C)n3)nc3cc(OC)ccc23)CN1C(=O)[C@@H](NC(=O)OC1CCCC1)C(C)(C)C)P(=O)(O)Cc1ccccc1OC | 
3 |  | 7 |  | COc1ccc2c(O[C@@H]3C[C@H]4C(=O)N[C@]5(P(=O)(O)Cc6c(F)cccc6F)C[C@H]5CCCCCCC[C@H](NC(=O)OC5CCCC5)C(=O)N4C3)cc(-c3csc(NC(C)C)n3)nc2c1Br | bioavailability [5]: 4.1%
8 | 0.34 | 239 | 1.8 | C=C[C@@H]1C[C@]1(NC(=O)[C@@H]1C[C@@H](Oc2cc(-c3csc(NC(C)C)n3)nc3cc(OC)ccc23)CN1C(=O)[C@@H](NC(=O)OC1CCCC1)C(C)(C)C)P(=O)(O)Cc1cccc(F)c1 | 
10 | 0.71 | 460 | 5.83 | C=C[C@@H]1C[C@]1(NC(=O)[C@@H]1C[C@@H](Oc2cc(-c3csc(NC(C)C)n3)nc3cc(OC)ccc23)CN1C(=O)[C@@H](NC(=O)OC1CCCC1)C(C)(C)C)P(=O)(O)Cc1ccc(OC)cc1 | 
6 | 0.53 | 340 | 6.36 | C=C[C@@H]1C[C@]1(NC(=O)[C@@H]1C[C@@H](Oc2cc(-c3csc(NC(C)C)n3)nc3cc(OC)ccc23)CN1C(=O)[C@@H](NC(=O)OC1CCCC1)C(C)(C)C)P(=O)(O)Cc1c(F)cccc1C(F)(F)F | 
4 |  | 10 |  | COc1ccc2c(O[C@@H]3C[C@H]4C(=O)N[C@]5(P(=O)(O)Cc6c(F)cccc6F)C[C@H]5CCCCCCC[C@H](NC(=O)OC5CCCC5)C(=O)N4C3)cc(-c3csc(NC(C)C)n3)nc2c1 | bioavailability [5]: 2.9%
4 |  | 20 |  | COc1ccc2c(O[C@@H]3C[C@H]4C(=O)N[C@]5(P(=O)(O)Cc6c(F)cccc6F)C[C@H]5CCCCCCC[C@H](NC(=O)OC5CCCC5)C(=O)N4C3)cc(-c3csc(NC(C)C)n3)nc2c1Cl [GS-9256] | Ratio IC50 [6]: 987; Activity (Hepatitis C virus [7]): -2.8 log10IU/ml; inhibition (INH) [8]: Not Active; Activity [9]: Active; inhibition [10]: Active; bioavailability [5]: 21%; Activity (Hepatitis C virus [11]): -2.4 log10IU/ml; Ratio IC50 [12]: 5400; inhibition (INH) (Bile salt export pump): Active; Activity [13]: Active; half-life [14]: 7 h; Ratio IC50 [15]: 6600; Ki (Hepatitis C virus [1]): 0.089 nM; inhibition (INH) [16]: Not Active; Ratio IC50 [17]: 5300; dose excreted at 4 h [18]: 95%; Ratio IC50 [19]: 28600; Activity (Hepatitis C virus [20]): -1.8 log10IU/ml
11 |  | 43 |  | COc1ccc2c(O[C@@H]3C[C@H]4C(=O)N[C@]5(P(=O)(O)Cc6c(F)cccc6F)C[C@H]5CCCCCCC[C@H](NC(=O)OC5CCCC5)C(=O)N4C3)cc(-c3csc(NC(C)C)n3)nc2c1F | bioavailability [5]: 6%
7 | 0.7 | 170 | 6.1 | C=C[C@@H]1C[C@]1(NC(=O)[C@@H]1C[C@@H](Oc2cc(-c3csc(NC(C)C)n3)nc3cc(OC)ccc23)CN1C(=O)[C@@H](NC(=O)OC1CCCC1)C(C)(C)C)P(=O)(O)Cc1ccccc1 | 
8 | 0.64 | 331 | 3.5 | C=C[C@@H]1C[C@]1(NC(=O)[C@@H]1C[C@@H](Oc2cc(-c3csc(NC(C)C)n3)nc3cc(OC)ccc23)CN1C(=O)[C@@H](NC(=O)OC1CCCC1)C(C)(C)C)P(=O)(O)Cc1cccc(C)c1 | 
6 |  | 5 |  | COc1ccc2c(O[C@@H]3C[C@H]4C(=O)N[C@]5(P(=O)(O)Cc6ccccc6)C[C@H]5CCCCCCC[C@H](NC(=O)OC5CCCC5)C(=O)N4C3)cc(-c3csc(NC(C)C)n3)nc2c1 | clearance [21]: 6 mL/min/kg
6 | 0.89 | 120 | 5.87 | C=C[C@@H]1C[C@]1(NC(=O)[C@@H]1C[C@@H](Oc2cc(-c3csc(NC(C)C)n3)nc3cc(OC)ccc23)CN1C(=O)[C@@H](NC(=O)OC1CCCC1)C(C)(C)C)P(=O)(O)Cc1c(F)cccc1Cl | 
4 | 1.22 | 74 | 10.6 | C=C[C@@H]1C[C@]1(NC(=O)[C@@H]1C[C@@H](Oc2cc(-c3csc(NC(C)C)n3)nc3cc(OC)ccc23)CN1C(=O)[C@@H](NC(=O)OC1CCCC1)C(C)(C)C)P(=O)(O)Cc1c(F)cccc1F | bioavailability [5]: 8%; half-life [22]: 1.6 h; AUC (Canis familiaris): 3.12 µM·h; pKa [23]: 2.7; clearance [24]: 6.17 mL/min/kg; dose excreted at 4 h [18]: > 90%; Vd [25]: 0.31 L/kg
4 | 0.53 | 170 | 2.74 | C=C[C@@H]1C[C@]1(NC(=O)[C@@H]1C[C@@H](Oc2cc(-c3csc(NC(C)C)n3)nc3cc(OC)ccc23)CN1C(=O)[C@@H](NC(=O)OC1CCCC1)C(C)(C)C)P(=O)(O)Cc1ccccc1F | 
7 | 0.84 | 284 | 4.38 | C=C[C@@H]1C[C@]1(NC(=O)[C@@H]1C[C@@H](Oc2cc(-c3csc(NC(C)C)n3)nc3cc(OC)ccc23)CN1C(=O)[C@@H](NC(=O)OC1CCCC1)C(C)(C)C)P(=O)(O)Cc1ccc(F)cc1 | 
7 | 0.39 | 540 | 8.28 | C=C[C@@H]1C[C@]1(NC(=O)[C@@H]1C[C@@H](Oc2cc(-c3csc(NC(C)C)n3)nc3cc(OC)ccc23)CN1C(=O)[C@@H](NC(=O)OC1CCCC1)C(C)(C)C)P(=O)(O)Cc1cccc(OC)c1 | 
63 | 0.19 | 7700 | 2.93 | C=C[C@@H]1C[C@]1(NC(=O)[C@@H]1C[C@@H](Oc2cc(-c3csc(NC(C)C)n3)nc3cc(OC)ccc23)CN1C(=O)[C@@H](NC(=O)OC1CCCC1)C(C)(C)C)P(=O)(O)Cc1c(C)cccc1C | 

SMILES | IC50 (Hepatitis C virus [1]) [nM] | Papp A→B [2] [×10⁻⁶ cm/s] | EC50 (Hepatitis C virus [3]) [nM] | Papp B→A [4] [×10⁻⁶ cm/s] | further results
COc1ccc2c(O[C@@H]3C[C@H]4C(=O)N[C@]5(C(=O)O)C[C@H]5/C=C\CCCCC[C@H](NC(=O)OC5CCCC5)C(=O)N4C3)cc(-c3csc(NC(C)C)n3)nc2c1 [CILUPREVIR] | 1 |  | 1 |  | 
